Assay results from patent US9249132B2, “Substituted bicyclic aromatic compounds as S-nitrosoglutathione reductase inhibitors” (Nivalis Therapeutics, Inc., priority 2010, dated 2016).

Tests used:
[1] = system: cigarette smoke-induced COPD; test: Subchronic (11 day) cigarette smoke exposure COPD model; format: in vivo, mouse; details: oral 10 mg/kg/day for 11 days
Protocol: Infiltration of inflammatory cells into the bronchoalveolar lavage fluid (BALF) and BALF levels of chemokines involved in inflammation and tissue turnover/repair were measured to assess the influences of GSNOR inhibitors on some of the early events associated with the initiation and progression of COPD. […] In animal models, changes in lung pathology are only evident after extended (several months) duration of exposure to cigarette smoke, thus making chronic models prohibitive as effective screening tools. […] The key roles of inflammation in the initiation and progression of COPD, make these short duration models relevant for initial tests of efficacy of novel therapeutics. Subchronic (11 Day) Smoke Exposure Model: Female C57B1/6 mice (N=10 per group) were exposed to cigarette smoke generated from Marlboro 100 cigarettes without filters. Exposure times were 25 min. on study day 1, 35 min. on study day 2, and 45 min. on study days 3 to 11. GSNOR inhibitors were administered one hour prior to smoke exposure on each day. GSNOR inhibitors were dosed orally at 1 to 10 mg/kg/day for 11 days. The effects of GSNOR inhibitors were assessed by quantitating the number of total cells, and leukocytes differentials in the BALF via light microscopy at 24 h after the last exposure. The effect of GSNOR inhibitors were compared to vehicle treated controls and expressed as percent inhibition of the cigarette smoke induced increases in BALF cell numbers. Roflumilast was used as the positive control for the study and was dosed at 5 mg/kg/day. A group of naïve mice (N=10) was exposed to air and dosed with vehicle as a negative control for the study.

[2] = system: dextran sodium sulfate (DSS)-induced IBD; test: Chronic treatment model of DSS-induced IBD; format: in vivo, mouse
Text: Acute and chronic models of dextran sodium sulfate (DSS)-induced IBD in mice were used to explore efficacy of GSNORi against this disease. Acute and chronic DSS-induced IBD are widely used and well characterized models that induce pathological changes in the colon similar to those observed in the human disease. In these models and in human disease, epithelial cells within the crypts of the colon are disrupted, leading to dysfunction of the epithelial barrier and the ensuing tissue inflammation, edema, and ulceration. GSNORi therapy may benefit IBD by restoring s-nitrosoglutathione (GSNO) levels, and thus prevent or reverse the epithelial barrier dysfunction.
Experimental IBD was induced by administration of DSS in the drinking water of male C57B1/6 mice (N=10 to 12 mice per group) for 6 consecutive days. GSNORi was dosed orally at doses of 10 mg/kg/day for 14 days starting one day after cessation of DSS exposure. Efficacy of GSNORi was assessed in a blinded fashion via endoscopy after 7 days and 14 days of GSNORi dosing and via histopathology after 14 days of GSNORi dosing using a five point scale ranging from a score=0 (normal tissue) through a score=4 (ulcerative tissue damage and marked pathological changes). Levels of circulating cytokines involved in inflammatory pathways were also assessed. The effect of GSNORi was compared to vehicle treated controls. The corticosteroid, prednisolone, was used as the positive control in this study and was administered daily at 3 mg/kg/day via oral dosing. Naïve mice (N=5) were also assessed as a normal tissue control.

GSNOR = biological target: T1, GSNOR (Homo sapiens, UniProt P11766); test: GSNOR assay (inhibition of GSNOR activity, change in 340 nm absorbance); format: biochemical; details: 100 mM NaPO4 pH 7.4, 0.240 mM GSNO, 0.300 mM NADH, 0.5 μg/mL GSNO Reductase, 1% DMSO, 25° C.
T1 construct: made in house; host or cells: E. coli
Protocol: Various compounds were tested in vitro for their ability to inhibit GSNOR activity.
GSNOR expression and purification is described in Biochemistry 2000, 39, 10720-10729.
GSNOR Fermentation: Pre-cultures were grown from stabs of a GSNOR glycerol stock in 2XYT media containing 100 ug/ml ampicillin after an overnight incubation at 37° C. Cells were then added to fresh 2XYT (4 L) containing ampicillin and grown to an OD (A600) of 0.6-0.9 at 37° C. before induction. GSNOR expression was induced with 0.1% arabinose in an overnight incubation at 20° C.
GSNOR Purification: E. coli cell paste was lysed by nitrogen cavitation and the clarified lysate purified by Ni affinity chromatography on an AKTA FPLC (Amersham Pharmacia). The column was eluted in 20 mM Tris pH 8.0/250 mM NaCl with a 0-500 mM imidazole gradient. Eluted GSNOR fractions containing the Smt-GSNOR fusion were digested overnight with Ulp-1 at 4° C. to remove the affinity tag then re-run on the Ni column under the same conditions. GSNOR was recovered in the flowthrough fraction and for crystallography is further purified by Q-Sepharose and Heparin flowthrough chromatography in 20 mM Tris pH 8.0, 1 mM DTT, 10 uM ZnSO4.
GSNOR Assay: GSNO and enzyme/NADH Solutions are made up fresh each day. The solutions are filtered and allowed to warm to room temperature. GSNO solution: 100 mM NaPO4 (pH 7.4), 0.480 mM GSNO. 396 μL of GSNO Solution is added to a cuvette followed by 8 μL of test compound in DMSO (or DMSO only for full reaction control) and mixed with the pipette tip. Compounds to be tested are made up at a stock concentration of 10 mM in 100% DMSO. 2 fold serial dilutions are done in 100% DMSO. 8 μL of each dilution are added to an assay so that the final concentration of DMSO in the assay is 1%. The concentrations of compounds tested range from 100 to 0.003 μM. Enzyme/NADH solution: 100 mM NaPO4 (pH 7.4), 0.600 mM NADH, 1.0 μg/mL GSNO Reductase. 396 μL of the Enzyme/NADH solution is added to the cuvette to start the reaction. The cuvette is placed in the Cary 3E UV/Visible Spectrophotometer and the change in 340 nm absorbance/min at 25° C. is recorded for 3 minutes. The assays are done in triplicate for each compound concentration. IC50's for each compound are calculated using the standard curve analysis in the Enzyme Kinetics Module of SigmaPlot.
Final assay conditions: 100 mM NaPO4, pH 7.4, 0.240 mM GSNO, 0.300 mM NADH, 0.5 μg/mL GSNO Reductase, and 1% DMSO. Final volume: 800 μL/cuvette.

[3] = chronic model, oral 10 mg/kg/day for up to 14 consecutive days, treatment dosing regimen

T1 sequence (P11766 whole entry): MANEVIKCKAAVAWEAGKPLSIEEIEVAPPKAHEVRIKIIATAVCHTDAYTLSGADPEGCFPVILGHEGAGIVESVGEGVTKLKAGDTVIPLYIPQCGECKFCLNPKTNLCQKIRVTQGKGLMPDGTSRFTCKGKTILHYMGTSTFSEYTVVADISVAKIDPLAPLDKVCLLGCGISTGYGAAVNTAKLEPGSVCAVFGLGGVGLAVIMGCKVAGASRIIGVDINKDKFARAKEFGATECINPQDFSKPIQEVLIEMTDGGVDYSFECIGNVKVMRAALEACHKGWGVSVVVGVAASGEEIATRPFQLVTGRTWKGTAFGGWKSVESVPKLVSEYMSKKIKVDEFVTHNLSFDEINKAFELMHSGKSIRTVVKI

O=C(O)c1ccc(-c2ccc3cc(O)ccc3c2)c(Cl)c1 [Example 1, 3-chloro-4-(6-hydroxynaphthalen-2-yl)benzoic acid]
inhibition of smoke-induced increase in lymphocytes in BAL [1]: 41%
inhibition of smoke-induced increase in macrophages in BAL ([1]; p<0.05): 40%
inhibition of smoke-induced increase in neutrophils in BAL ([1]; p<0.05): 49%
inhibition of smoke-induced increase in total cells in BAL ([1]; p<0.05): 40%
colon injury (in words) ([2]; chronic DSS-induced IBD): attenuated colon injury
decrease of percent of mice presenting with severe colon injury scores via endoscopy, of vehicle control [2, 3]: 50%
decrease of percent of mice presenting with severe colon injury scores via histopathology, of vehicle control [2, 3]: 17%
IC50 (GSNOR): < 50 nM
